# “Also recorded” adds a separate entry of the source.
# Columns and labels:
# Female cycling rats = assay: Intra uterine application of Ac-B and IUI in rat, fertilization outcome; format: in vivo, Sprague-Dawley rats
# Description: Female cycling rats weighing 180-200 g were obtained from the institutional Animal House. The duplex nature of the rat uterus with separate cervical canal helped us to organize both control and experimental sets in the same animal with exposure to identical physiological milieu.
# On the day of pro-estrous, both horns of the uterus were exposed by mid-ventral incision of the abdomen under light anesthesia following intra peritoneal injection of Ketamin at a concentration of 100 mg/kg body weight, supported by inhalation of anesthetic-ether, during 17.00-17.30 hours of the day. IUI was performed by injecting 50 microliters of sperm suspensions with varied concentration (25-30, 40-50, and 50-55 million sperms/ml) through a 24 G needle fitted onto a tuberculin syringe in the cervical end of the uterine lumen of each horn. The muscle in the injection site was held tightly for a while to prevent leakage through the puncture. Prior to IUI, each rat received a injection of 1.75 mg Ac-B in 50 microliters BWW medium in the left horn and simple BWW medium in the right horn. The opened abdominal muscle and skin layers were properly sutured by suturing silk thread. The outer most skin layers were further fixed by metal clips. The wound was properly cleaned with antiseptic lotions. Each operated animal was housed individually in fresh cage for collection and counting of unfertilized oocytes, two celled embryos, and fragmented bodies. […] The abdomen was opened and each of the fallopian tubes was collected carefully. The content of each tube was flushed out by introducing BWW medium into each tube with the help of a 30 G hypodermic needle in a watch glass. The flushed out lavage was examined under an inverted phase contrast microscope (Leitz, Labovert, ×100) to score the number of recovered fertilized/unfertilized eggs from individual fallopian tube.
# [1] = test system: Lactobacillus acidophilus; format: cell-based
# Description: The media for culture of bacteria purchased from HI-MEDIA, India and spores of Lactobacillus acidophilus were obtained from pharmaceutical capsule marketed by Infer (India) Limited.
# Sterile, molten (45-50 degree C.) Lactobacilli MRS agar was poured into sterile Petri dishes with (a) 1, 10, 100, 200, 500 mg of Ac-B (Experimental) and (b) without Ac-B (Control). The plates were placed within an incubator having 37 degree C. inside temperature and 5% CO2 in air for 72 hours. The number of colonies and their individual size were compared.
# human sperm = assay: Live/dead staining (SYBR-14 / propidium iodide) of treated sperm; format: cell-based
# Description: Live/dead staining kit (Invitrogen: Paisley, UK), using SYBR-14 in combination with propidium iodide (PI) was used for the purpose.
# The SYBR-14 was prepared in anhydrous methyl sulfoxide (DMSO) at a concentration of 1 mg/ml. A working solution of SYBR-14 diluted 1:10 with DMSO was used for staining the sperm. The PI was dissolved in Tyrode's salt solution at 2 mg/ml.
# The human sperm samples, pre-treated without (control) or with Ac-B (experimental) and Nonoxynol 9 (positive control) were incubated for 15 min at 36 degree C. before examination. […] The fluorescent staining of sperm was monitored and photographed with a Zeiss Axiophot epifluorescent microscope (Carl Zeiss Inc., Thornwood, N.Y.) equipped with a fluorescein isothiocyanate filter set (Zeiss #487909).
# Viability of Ac-B-treated human spermatozoa was evaluated using a dual fluorescent live/dead staining kit (Invitrogen; Paisley, UK) consisting of SYBR 14 and propidium iodide (PI). PI cannot penetrate living cells but can bind to and stain cellular DNA in damaged cells giving them red fluorescence. On completion of staining reaction, proportionate distribution of green (live) and red (dead) stained spermatozoa was recorded using dual emission filter for SYBR14 and propidium iodide. In the control set all sperms were stained green but the Ac-B-treated spermatozoa (125 mcg/ml) were stained red.
# NL4.3 virus = assay: Anti-HIV activity in P4 (Hela-CD4-LTR-β Gal) cells (p24 ELISA, X-gal staining); format: cell-based, HIV-1; details: for Percentage inhibition of hiv growth in p4 cell line, Without Pretreatment: untreated virus; for Inhibition of viral transmission, Ac-B-treated virus: subsequent culture with or without Ac-B
# Description: P4 (Hela-CD4-LTR-β Gal) cells were infected with 0.05 MOI of NL4.3 virus pretreated without or with Ac-B at varying concentrations (1 hour at 37 degree C.) followed by incubation for 48 hours in the presence or absence of Ac-B at a concentration of 0.5 to 2.5 microgram per ml. Virus production was analyzed by ELISA of p24 antigen in the culture supernatant. Viral transmission in the transfected cells was evaluated by X-gal staining, in which an antiretroviral therapeutic drug, Azidothymidine (AZT) was used as positive control.
# human spermatozoa [2] = assay: Penetrak Test (bovine cervical mucus penetration test); format: cell-based; details: treated at MEC, washed; 1 hour; BWW control about 27(±3) mm
# Description: The bovine cervical mucus penetration test was performed using the Penetrak kit (Serono Diagnostics, Allentown, Pa.).
# Working suspension of human spermatozoa, prepared as above was treated in vitro with Ac-B at MEC, washed and resuspended in pre-equilibrated BWW medium. For the negative control set, same treatment was given to the sperms in BWW medium. Flat-capillary tubes filled with periovulatory mid-cycle bovine cervical mucus, in duplicate, were thawed at room temperature for 30 minutes and snapped at the red score mark above the mucus meniscus. The cut end was placed in tube containing treated/control washed sperm suspension and placed inside a CO2 incubator for 1 hour. The capillary tubes were then taken out, cleaned to remove superficially attached sperms, placed on a calibrated slide and examined by phase contrast microscopy (at ×400). The vanguard sperm was located and the distance (in mm) covered by it was measured to score the penetrating capacity of a sperm of the test sets.
# human spermatozoa [3] = assay: Motility revival test (Experiment A); format: cell-based; details: human spermatozoa treated at MEC, washed, incubated 30-60 minutes at 37 degree C
# Description: Human spermatozoa, treated with Ac-B at MEC and BWW control set were washed twice in pre-equilibrated BWW medium, re-suspended in fresh BWW medium and again incubated in a CO2-incubator at 37 degree C. for 30-60 minutes. At the end of the incubation, wet-preparation of spermatozoa was made from each set on a glass slide. The preparation was examined under a phase contrast microscope (at ×400) to note reversal of motility in 10 fields-of-view.
# [4] = 1.75 mg Ac-B intrauterine, sperm count 25-30 million/ml (N = 3)
# [5] = 1.75 mg Ac-B intrauterine, sperm count 40-50 million/ml (N = 4)
# [6] = 1.75 mg Ac-B intrauterine, sperm count 50-55 million/ml (N = 4)
substance,measurement,setting,value
Acaciaside-B [Ac-B],"Fertilized (number of eggs), treated horn","Female cycling rats; 1.75 mg Ac-B in 50 microliters BWW intrauterine before IUI, sperm count 25-30 million/ml (N = 3), flushing 38-40 hours after IUI",0 (0%)
same,"Fertilized (%), treated horn",Female cycling rats; [4],0 (0%)
same,"Unfertilized (%), treated horn",Female cycling rats; [4],100%
same,"Unfertilized (number of eggs), treated horn",Female cycling rats; [4],17
same,"Fertilized (number of eggs), treated horn",Female cycling rats; [5],0 (%)
same,"Unfertilized (%), treated horn",Female cycling rats; [5],100%
same,"Unfertilized (number of eggs), treated horn",Female cycling rats; [5],19
same,"Fertilized (%), treated horn",Female cycling rats; [6],18%
same,"Fertilized (number of eggs), treated horn",Female cycling rats; [6],3
same,"Unfertilized (%), treated horn",Female cycling rats; [6],82%
same,"Unfertilized (number of eggs), treated horn",Female cycling rats; [6],13
same,Dose level not affecting growth of Lactobacillus acidophilus,[1],≥ 500 mg/mL
same,Size of Lactobacillus colonies grown in the presence of Ac-B,[1],comparable to that of control
same,Live/dead staining colour of treated spermatozoa,"human sperm; Ac-B 125 mcg/ml, green = live, red = dead",stained red
same,"Percentage of dead spermatozoa, Live/dead staining",human sperm; human sperm pre-treated with Ac-B,92 (±5)%
same,"Percentage inhibition of hiv growth in p4 cell line, Without Pretreatment","NL4.3 virus; Ac-B 0.5 microgram per ml, 48 hours",0%
same,"Percentage inhibition of hiv growth in p4 cell line, Pretreatment with Ac-B","NL4.3 virus; Ac-B 0.5 microgram per ml, virus pretreated 1 hour at 37 degree C, 48 hours",76.53%
same,"Anti-HIV activity by X-gal staining, compared with AZT",NL4.3 virus; Ac-B 1.0 microgram per ml (0.005 micromoles) vs AZT at 2 micromole,comparable to or greater than that induced by AZT
same,"Percentage inhibition of hiv growth in p4 cell line, Without Pretreatment",NL4.3 virus; Ac-B 1 microgram per ml,0%
same,"Percentage inhibition of hiv growth in p4 cell line, Pretreatment with Ac-B","NL4.3 virus; Ac-B 1 microgram per ml, virus pretreated",95.86%
same,"Percentage inhibition of hiv growth in p4 cell line, Without Pretreatment",NL4.3 virus; Ac-B 2 microgram per ml,0%
same,"Percentage inhibition of hiv growth in p4 cell line, Pretreatment with Ac-B","NL4.3 virus; Ac-B 2 microgram per ml, virus pretreated",96%
same,"Percentage inhibition of hiv growth in p4 cell line, Without Pretreatment",NL4.3 virus; Ac-B 2.5 microgram per ml,0%
same,"Percentage inhibition of hiv growth in p4 cell line, Pretreatment with Ac-B","NL4.3 virus; Ac-B 2.5 microgram per ml, virus pretreated",95.53%
same,"Inhibition of viral transmission, Ac-B-treated virus",NL4.3 virus; Ac-B greater than or equal to 1.5 microgram per ml,> 95%
same,"Inhibition of viral transmission, Ac-B-treated virus",NL4.3 virus; Ac-B ≧1.0 mcg/ml,> 95%
same,"Inhibition of viral transmission, untreated virus",NL4.3 virus; cells infected with untreated virus and cultured in the presence of Ac-B,no inhibition of viral transmission
same,Penetration of vanguard sperm into bovine cervical mucus column,human spermatozoa [2],capillary was devoid of sperm inside the mucus column
same,Revival of motility after washing and re-incubation,human spermatozoa [3],no sign for revival of motility; also recorded: irreversible
